Source: ChEMBL document CHEMBL1201862, “PubChem BioAssay data set” (2004)
Calls of active or inactive are those of the source.

How the values were obtained:
[1] = target: Cyclin-dependent kinase 19 (Homo sapiens, UniProt Q9BWU1); assay: Navigating the Kinome. Panel member name: CDC2L6; format: functional
[2] = target: Dual specificity protein kinase CLK4 (Homo sapiens, UniProt Q9HAZ1); format: functional
Vero = assay: viability of Vero cells under compound – cytotoxicity control for flavivirus capping enzyme inhibitors (AID 588742); format: functional; conditions: Chlorocebus sabaeus
[3] = viability loss in THP-1 monocytes – THP-1 cells, cytotoxicity control for Vif-APOBEC3G degradation inhibitor project, dose response (AID 1117359); format: functional; conditions: THP-1
Genome polyprotein = Genome polyprotein (dengue virus type 2, UniProt P29990); assay: flavivirus cap methylation enzyme inhibition – biochemical, confirmation dose response, primary screen (AID 588689); format: functional
HEK293 [4] = assay: cells; conditions: Homo sapiens
HEK293 [5] = assay: cells; conditions: Homo sapiens; remark: listed apart in the source
[6] = target: Photoreceptor-specific nuclear receptor (Homo sapiens, UniProt Q9Y5X4); format: functional, cell-based;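 also: CHO-S cells with Gal4-NCOR and VP16-NR2E3 two-hybrid luciferase reporter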
Aurora kinase A = target: T1, Aurora kinase A (Homo sapiens, UniProt O14965); format: functional;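 also: value from the Navigating the Kinome kinase panel profiling, panel entry STK6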
T1 sequence (O14965 whole entry): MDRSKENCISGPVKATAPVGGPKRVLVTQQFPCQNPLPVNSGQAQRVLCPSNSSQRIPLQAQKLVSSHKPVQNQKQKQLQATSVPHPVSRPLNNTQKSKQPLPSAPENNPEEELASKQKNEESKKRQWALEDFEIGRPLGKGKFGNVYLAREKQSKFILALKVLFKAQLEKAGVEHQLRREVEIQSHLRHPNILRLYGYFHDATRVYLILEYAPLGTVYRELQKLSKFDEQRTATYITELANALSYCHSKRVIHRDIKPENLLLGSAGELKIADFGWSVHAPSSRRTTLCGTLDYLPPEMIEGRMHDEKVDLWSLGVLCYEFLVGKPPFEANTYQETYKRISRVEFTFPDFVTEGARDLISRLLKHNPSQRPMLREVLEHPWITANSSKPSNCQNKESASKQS

Aurora kinase B = Aurora kinase B (Homo sapiens, UniProt Q96GD4); format: functional
[7] = target: Vascular endothelial growth factor receptor 2 (Homo sapiens, UniProt P35968); format: functional
[8] = target: T2, Aryl hydrocarbon receptor (Homo sapiens, UniProt P35869); conditions: Potency;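 also: confirmatory quantitative high-throughput screen measuring activation of the AhR signaling pathway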
T2 sequence (P35869 whole entry): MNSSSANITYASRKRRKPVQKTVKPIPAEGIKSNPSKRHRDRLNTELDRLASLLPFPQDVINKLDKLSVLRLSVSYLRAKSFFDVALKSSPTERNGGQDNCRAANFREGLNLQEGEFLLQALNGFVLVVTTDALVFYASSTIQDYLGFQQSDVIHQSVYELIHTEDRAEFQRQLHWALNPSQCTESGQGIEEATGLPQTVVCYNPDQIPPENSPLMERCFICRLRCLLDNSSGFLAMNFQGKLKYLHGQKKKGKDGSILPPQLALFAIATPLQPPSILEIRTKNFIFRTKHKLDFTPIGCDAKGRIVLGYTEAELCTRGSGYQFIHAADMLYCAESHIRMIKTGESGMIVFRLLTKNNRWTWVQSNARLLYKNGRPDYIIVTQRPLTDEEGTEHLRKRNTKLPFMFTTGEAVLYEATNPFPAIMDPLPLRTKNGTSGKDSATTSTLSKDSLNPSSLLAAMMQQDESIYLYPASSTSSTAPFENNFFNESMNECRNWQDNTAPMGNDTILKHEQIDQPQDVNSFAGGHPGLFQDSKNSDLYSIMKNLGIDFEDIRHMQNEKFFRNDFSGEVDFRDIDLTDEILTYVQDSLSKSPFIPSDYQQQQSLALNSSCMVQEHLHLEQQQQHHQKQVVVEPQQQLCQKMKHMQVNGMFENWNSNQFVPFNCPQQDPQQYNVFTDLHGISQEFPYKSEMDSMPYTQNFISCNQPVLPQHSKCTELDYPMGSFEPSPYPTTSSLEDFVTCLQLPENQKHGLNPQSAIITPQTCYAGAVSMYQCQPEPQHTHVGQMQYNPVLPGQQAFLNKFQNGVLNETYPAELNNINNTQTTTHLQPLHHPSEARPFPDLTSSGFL

[9] = target: Heat shock protein HSP 90-alpha (Homo sapiens, UniProt P07900); format: functional, organism-based
[10] = microbe, parasite or virus in culture; format: functional; conditions: Mycobacterium tuberculosis
[11] = target: Hepatocyte nuclear factor 4-alpha (Homo sapiens, UniProt P41235); format: functional, cell-based;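 also: biochemical luminescence-based dose-response counterscreen measuring inhibition of HNF4 dimerization, run alongside a screen for blockers of ABHD5–perilipin-5 interaction; split luciferase complementation of HNF4 fusion proteins in cell lysate measuring dimerization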
Melanocortin receptor 4 = Melanocortin receptor 4 (Homo sapiens, UniProt P32245); format: functional, cell-based;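 also: Cell-based assay with luminescence read-out, confirmatory dose-response testing for agonist activity of biased ligands at MC4R; human U2OS cells with tagged receptor and beta-arrestin; potency of agonists that increase receptor coupling to beta-arrestin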
[12] = target: T3, DNA repair protein RAD52 homolog (Homo sapiens, UniProt P43351); format: functional, biochemical
T3 sequence (P43351 whole entry): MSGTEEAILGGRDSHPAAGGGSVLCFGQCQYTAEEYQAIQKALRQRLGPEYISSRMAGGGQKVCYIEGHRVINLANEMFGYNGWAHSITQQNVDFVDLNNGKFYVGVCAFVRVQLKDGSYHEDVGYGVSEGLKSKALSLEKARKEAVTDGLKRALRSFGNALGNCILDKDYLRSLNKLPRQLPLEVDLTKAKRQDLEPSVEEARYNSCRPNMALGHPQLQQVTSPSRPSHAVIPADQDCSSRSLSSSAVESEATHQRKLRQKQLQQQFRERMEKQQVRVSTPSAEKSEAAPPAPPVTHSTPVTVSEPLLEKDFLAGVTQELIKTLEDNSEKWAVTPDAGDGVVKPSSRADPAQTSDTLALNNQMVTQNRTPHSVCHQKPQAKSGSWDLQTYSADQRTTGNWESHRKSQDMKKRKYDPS

Paired box protein Pax-8 = Paired box protein Pax-8 (Homo sapiens, UniProt Q06710); assay: PAX8 transcriptional activity inhibition in RMG-I – RMG-I cells, luciferase, cherry-pick, dose response (AID 687027); format: functional, cell-based;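 also: luciferase reporter driven by Pax8 target thyroperoxidase promoter measured by SteadyGlo luminescence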
[13] = target: T4, ATP-dependent translocase ABCB1 (Homo sapiens, UniProt P08183); assay: inhibition of BCRP-mediated JC-1 efflux – Ig-MXP3 cells, flow cytometry, set 2, dose response (AID 504566); format: functional; conditions: read-out: EC50_MICROM_;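 also: flow cytometry median green fluorescence of retained JC-1 dye; potency of efflux pump inhibition measured as rising substrate retention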
[14] = target: T4, ATP-dependent translocase ABCB1; assay: P-gp JC-1 efflux blockade concentration-response – Jurkat-DNR cells, flow cytometry, set 2, dose response (AID 504569); format: functional; conditions: read-out: EC50_MICROM_;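 also: potency of pump inhibitors that raise cellular JC-1 green fluorescence up to the nicardipine level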
[15] = target: T5, Carboxy-terminal domain RNA polymerase II polypeptide A small phosphatase 1 (Homo sapiens, UniProt Q9GZU7); assay: CTDSP1 inhibitors, concentration-response, biochemical, absorbance readout, ultra-high-throughput screen actives (AID 540297); format: functional
T5 sequence (Q9GZU7 whole entry): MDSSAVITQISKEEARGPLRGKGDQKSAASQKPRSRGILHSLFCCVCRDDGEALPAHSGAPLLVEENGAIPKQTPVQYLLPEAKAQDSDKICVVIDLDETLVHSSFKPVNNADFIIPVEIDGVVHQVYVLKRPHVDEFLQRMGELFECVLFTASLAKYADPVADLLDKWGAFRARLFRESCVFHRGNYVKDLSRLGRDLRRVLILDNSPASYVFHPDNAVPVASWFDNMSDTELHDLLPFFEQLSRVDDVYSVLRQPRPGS

[16] = target: DNA (cytosine-5)-methyltransferase 1 (Homo sapiens, UniProt P26358); assay: inhibition of DNA methylation by DNMT1 – biochemical, fluorescent molecular beacon, confirmation (AID 602386); format: functional
[17] = target: T6, Probable nicotinate-nucleotide adenylyltransferase (Staphylococcus aureus (strain N315), UniProt P65502); format: functional, Staphylococcus aureus subsp. aureus N315; conditions: read-out: IC50_Mean;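 as to IC50 Mean: confirmatory dose-response retesting of NadD inhibitor hits first found in an ultra-high-throughput screen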
[18] = target: T6, Probable nicotinate-nucleotide adenylyltransferase; format: functional, Staphylococcus aureus subsp. aureus N315
[19] = target: COUP transcription factor 2 (Homo sapiens, UniProt P24468); assay: Luminescence-based cell-based high throughput dose response assay to identify inhibitors of COUP-TFII (NR2F2).; format: functional;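 also: HEK293 cells transiently cotransfected with COUP-TFII expression vector and reporter; luciferase reporter luminescence driven by COUP-TFII from the pX2-168 reporter plasmid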
HEK293 [20] = assay: EBV LMP1 TES2 canonical NF-kB signalling blockers – cell-based, HEK293, luciferase, cherry-pick, dose response (AID 588343); format: functional; conditions: Homo sapiens
Protein Wnt-3a = Protein Wnt-3a (Mus musculus, UniProt P27467); assay: antagonism of Wnt3a pathway luciferase reporter – Wnt-LIGHT cells, luminescence, selectivity assay for Gli-SUFU antagonist project, dose response (AID 651570); format: functional; conditions: read-out: IC50_Mean;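 also: Wnt-LIGHT reporter cells stimulated with conditioned medium from Wnt3a-producing cells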
[21] = target: Ras and Rab interactor 1/Tyrosine-protein kinase ABL1 (Homo sapiens, UniProt P00519+Q13671); format: functional;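 also: biochemical TR-FRET dose-response test measuring inhibition of binding between Rin1 and Abl proteins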
[22] = target: Cell division cycle 7-related protein kinase (Homo sapiens, UniProt O00311); format: functional;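 also: value obtained from a kinome-wide kinase panel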
[23] = target: Beta-2 adrenergic receptor (Homo sapiens, UniProt P07550); assay: ADRB2 activation measured by internalization – cell-based, FAP fluorogen, flow cytometry, cherry pick 1, dose response (AID 588763); format: functional
[24] = target: Inhibitor of nuclear factor kappa-B kinase subunit epsilon (Homo sapiens, UniProt Q14164); assay: Navigating the Kinome. Panel member name: IKBKE; format: functional
[25] = target: Cyclin-dependent kinase 8 (Homo sapiens, UniProt P49336); assay: Navigating the Kinome. Panel member name: CDK8; format: functional
Activin receptor type-1 = Activin receptor type-1 (Homo sapiens, UniProt Q04771); assay: Navigating the Kinome. Panel member name: ACVR1; format: functional
Chain of Activin receptor type-1 (Q04771 whole entry): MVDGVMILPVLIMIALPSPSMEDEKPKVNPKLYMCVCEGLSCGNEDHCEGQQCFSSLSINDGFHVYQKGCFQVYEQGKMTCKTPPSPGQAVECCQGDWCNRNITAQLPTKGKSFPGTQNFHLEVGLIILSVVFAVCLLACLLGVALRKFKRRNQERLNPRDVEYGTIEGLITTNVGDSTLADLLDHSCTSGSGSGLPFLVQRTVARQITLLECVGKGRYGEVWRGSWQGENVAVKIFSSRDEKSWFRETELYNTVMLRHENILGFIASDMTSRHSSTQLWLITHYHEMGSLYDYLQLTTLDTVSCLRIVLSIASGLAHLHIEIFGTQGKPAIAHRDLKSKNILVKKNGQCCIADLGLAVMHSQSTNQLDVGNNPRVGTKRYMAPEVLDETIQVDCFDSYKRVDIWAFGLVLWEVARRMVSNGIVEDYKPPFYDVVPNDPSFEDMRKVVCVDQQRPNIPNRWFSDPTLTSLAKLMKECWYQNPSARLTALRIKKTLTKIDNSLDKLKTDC

Chain of Aurora kinase B (Q96GD4 whole entry): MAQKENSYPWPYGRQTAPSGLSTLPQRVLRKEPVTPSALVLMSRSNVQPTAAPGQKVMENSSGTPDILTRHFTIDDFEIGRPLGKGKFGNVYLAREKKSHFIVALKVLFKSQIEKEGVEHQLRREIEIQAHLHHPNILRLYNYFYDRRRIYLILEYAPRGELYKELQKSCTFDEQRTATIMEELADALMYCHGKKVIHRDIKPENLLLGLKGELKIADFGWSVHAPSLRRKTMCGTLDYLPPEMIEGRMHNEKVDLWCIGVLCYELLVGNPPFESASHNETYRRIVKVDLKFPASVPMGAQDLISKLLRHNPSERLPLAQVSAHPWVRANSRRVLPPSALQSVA
Chain of Cyclin-dependent kinase 19 (Q9BWU1 whole entry): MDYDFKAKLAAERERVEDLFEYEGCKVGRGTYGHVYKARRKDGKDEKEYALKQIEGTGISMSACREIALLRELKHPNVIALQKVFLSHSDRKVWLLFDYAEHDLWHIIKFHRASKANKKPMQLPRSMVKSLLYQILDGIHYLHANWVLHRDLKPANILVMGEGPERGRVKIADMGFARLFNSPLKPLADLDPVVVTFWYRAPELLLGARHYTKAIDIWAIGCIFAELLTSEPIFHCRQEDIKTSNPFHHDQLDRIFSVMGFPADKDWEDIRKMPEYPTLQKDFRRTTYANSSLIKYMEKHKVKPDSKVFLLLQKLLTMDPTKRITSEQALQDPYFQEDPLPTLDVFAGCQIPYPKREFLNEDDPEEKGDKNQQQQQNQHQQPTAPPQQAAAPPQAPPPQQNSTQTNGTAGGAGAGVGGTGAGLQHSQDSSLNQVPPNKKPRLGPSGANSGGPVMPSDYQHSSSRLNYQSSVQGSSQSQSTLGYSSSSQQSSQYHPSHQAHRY
T6 sequence (P65502 whole entry): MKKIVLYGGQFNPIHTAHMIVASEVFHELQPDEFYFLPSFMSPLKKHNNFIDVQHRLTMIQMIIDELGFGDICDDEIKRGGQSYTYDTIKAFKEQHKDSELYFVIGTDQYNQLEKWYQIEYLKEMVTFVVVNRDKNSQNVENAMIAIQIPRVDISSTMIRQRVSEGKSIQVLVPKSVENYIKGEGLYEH
T4 sequence (P08183 whole entry): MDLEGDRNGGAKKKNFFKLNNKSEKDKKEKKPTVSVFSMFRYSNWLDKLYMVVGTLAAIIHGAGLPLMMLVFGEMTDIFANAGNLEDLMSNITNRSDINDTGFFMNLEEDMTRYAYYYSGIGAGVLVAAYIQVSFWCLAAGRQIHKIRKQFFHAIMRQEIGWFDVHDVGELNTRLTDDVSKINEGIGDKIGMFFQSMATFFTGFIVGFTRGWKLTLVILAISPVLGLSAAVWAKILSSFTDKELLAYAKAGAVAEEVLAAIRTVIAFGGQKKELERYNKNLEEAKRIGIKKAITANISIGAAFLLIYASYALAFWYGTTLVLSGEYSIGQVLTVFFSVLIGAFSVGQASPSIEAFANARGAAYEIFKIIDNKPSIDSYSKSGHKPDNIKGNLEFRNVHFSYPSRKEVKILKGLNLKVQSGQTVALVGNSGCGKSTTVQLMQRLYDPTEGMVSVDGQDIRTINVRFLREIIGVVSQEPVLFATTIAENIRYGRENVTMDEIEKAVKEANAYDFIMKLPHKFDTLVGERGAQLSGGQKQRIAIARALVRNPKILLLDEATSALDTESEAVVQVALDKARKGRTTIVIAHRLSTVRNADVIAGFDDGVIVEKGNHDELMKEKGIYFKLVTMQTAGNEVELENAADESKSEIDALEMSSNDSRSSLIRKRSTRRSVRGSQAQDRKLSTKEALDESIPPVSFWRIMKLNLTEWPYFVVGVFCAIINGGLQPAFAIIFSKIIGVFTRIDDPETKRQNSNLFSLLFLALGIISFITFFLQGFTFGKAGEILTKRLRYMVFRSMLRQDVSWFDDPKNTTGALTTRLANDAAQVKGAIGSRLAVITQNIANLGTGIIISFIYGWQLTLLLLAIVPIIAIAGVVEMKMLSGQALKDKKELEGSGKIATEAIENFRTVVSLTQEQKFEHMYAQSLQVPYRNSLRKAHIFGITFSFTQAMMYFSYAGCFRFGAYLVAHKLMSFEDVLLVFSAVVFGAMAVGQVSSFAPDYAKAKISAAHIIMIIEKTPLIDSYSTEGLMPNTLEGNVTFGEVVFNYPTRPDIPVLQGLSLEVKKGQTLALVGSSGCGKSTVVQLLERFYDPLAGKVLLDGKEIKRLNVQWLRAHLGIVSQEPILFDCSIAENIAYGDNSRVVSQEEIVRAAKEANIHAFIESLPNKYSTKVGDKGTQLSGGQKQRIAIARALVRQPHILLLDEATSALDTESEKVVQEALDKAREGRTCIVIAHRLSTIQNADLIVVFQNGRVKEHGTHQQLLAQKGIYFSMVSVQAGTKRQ
Chain of Hepatocyte nuclear factor 4-alpha (P41235 whole entry, the tested form may be a part): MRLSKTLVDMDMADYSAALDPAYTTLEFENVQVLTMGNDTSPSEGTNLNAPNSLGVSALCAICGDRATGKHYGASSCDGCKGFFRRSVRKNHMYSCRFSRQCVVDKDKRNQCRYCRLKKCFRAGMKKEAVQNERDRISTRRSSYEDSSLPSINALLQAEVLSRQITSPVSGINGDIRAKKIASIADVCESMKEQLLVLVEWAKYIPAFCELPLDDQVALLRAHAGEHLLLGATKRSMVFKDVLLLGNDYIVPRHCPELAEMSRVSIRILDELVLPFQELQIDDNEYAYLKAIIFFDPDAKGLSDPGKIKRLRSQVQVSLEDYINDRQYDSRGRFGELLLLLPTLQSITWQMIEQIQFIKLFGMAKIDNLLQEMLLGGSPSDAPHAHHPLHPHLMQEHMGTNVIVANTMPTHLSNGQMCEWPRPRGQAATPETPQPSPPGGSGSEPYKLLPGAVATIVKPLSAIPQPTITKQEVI
Chain of Cyclin-dependent kinase 8 (P49336 whole entry): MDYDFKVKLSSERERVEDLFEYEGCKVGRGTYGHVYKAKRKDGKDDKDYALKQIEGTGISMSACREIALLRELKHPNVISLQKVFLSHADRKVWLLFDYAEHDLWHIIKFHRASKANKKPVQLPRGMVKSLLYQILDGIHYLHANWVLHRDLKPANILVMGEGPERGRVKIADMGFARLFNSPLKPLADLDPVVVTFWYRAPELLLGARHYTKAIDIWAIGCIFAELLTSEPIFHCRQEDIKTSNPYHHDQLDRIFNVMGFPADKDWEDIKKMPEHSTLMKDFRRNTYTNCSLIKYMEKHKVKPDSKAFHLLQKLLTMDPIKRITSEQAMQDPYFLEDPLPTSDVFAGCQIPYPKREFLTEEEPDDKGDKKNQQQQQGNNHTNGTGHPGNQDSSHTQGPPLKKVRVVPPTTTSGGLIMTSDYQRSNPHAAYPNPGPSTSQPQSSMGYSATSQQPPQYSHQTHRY
Chain of Beta-2 adrenergic receptor (P07550 whole entry): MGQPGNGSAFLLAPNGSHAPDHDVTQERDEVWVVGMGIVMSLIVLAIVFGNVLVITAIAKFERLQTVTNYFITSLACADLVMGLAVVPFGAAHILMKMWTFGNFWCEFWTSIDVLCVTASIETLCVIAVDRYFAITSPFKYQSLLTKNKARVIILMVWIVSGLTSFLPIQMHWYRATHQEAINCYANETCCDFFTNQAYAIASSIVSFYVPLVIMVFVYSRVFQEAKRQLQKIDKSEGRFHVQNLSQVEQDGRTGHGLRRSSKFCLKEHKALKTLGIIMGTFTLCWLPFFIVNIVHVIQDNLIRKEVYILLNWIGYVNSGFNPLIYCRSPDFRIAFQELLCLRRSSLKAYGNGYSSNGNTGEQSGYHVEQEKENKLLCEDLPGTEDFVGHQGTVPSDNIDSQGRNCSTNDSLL
Chain of Photoreceptor-specific nuclear receptor (Q9Y5X4 whole entry, the tested form may be a part): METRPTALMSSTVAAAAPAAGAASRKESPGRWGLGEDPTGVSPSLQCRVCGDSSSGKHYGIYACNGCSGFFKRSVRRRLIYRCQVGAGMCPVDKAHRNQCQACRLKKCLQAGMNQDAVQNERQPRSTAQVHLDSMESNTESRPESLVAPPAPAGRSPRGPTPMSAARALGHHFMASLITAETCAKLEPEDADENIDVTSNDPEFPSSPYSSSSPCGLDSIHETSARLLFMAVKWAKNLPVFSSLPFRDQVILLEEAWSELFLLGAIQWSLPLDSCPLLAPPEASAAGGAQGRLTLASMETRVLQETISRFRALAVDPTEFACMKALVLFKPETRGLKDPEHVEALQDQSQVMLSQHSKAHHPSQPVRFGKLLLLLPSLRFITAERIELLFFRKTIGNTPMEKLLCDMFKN
Chain of Protein Wnt-3a (P27467 whole entry): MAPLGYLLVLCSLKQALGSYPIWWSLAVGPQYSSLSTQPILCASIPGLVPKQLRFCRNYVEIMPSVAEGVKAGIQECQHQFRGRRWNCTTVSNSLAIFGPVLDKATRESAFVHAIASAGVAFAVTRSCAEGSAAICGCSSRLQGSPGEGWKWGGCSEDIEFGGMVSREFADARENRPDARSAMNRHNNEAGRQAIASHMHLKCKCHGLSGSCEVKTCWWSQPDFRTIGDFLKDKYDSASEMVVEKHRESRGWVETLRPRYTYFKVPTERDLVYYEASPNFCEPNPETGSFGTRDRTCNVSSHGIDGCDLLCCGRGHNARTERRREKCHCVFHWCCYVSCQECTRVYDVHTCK

Q: For `O=c1cc(Cc2nc3ccccc3[nH]2)[nH]n1-c1ccccc1`, which Ki [1] is on record?
A: Its Ki is > 100 µM (inactive).

Q: What about the Ki [2] of the same molecule?
A: The Ki was 1.26 µM (active).

Q: Which CC50 (Vero) does the source give for `Cn1cccc1/C=C1\C(=O)NC(=O)N(Cc2ccccc2)C1=O` here?
A: Its CC50 is > 40 µM (active).

Q: And the CC50 [3]?
A: Its CC50 is > 40 µM (active).

Q: What about the IC50 (Genome polyprotein) of the same molecule?
A: The IC50 was 23.4 µM (active).

Q: What about the EC50 (HEK293 [4]) of the same molecule?
A: The EC50 was > 59.6 µM (inactive).

Q: What about the EC50 (HEK293 [5]) of the same molecule?
A: The EC50 was > 59.6 µM (inactive).

Q: With `COc1ccc(CNC(=O)c2cccc3c(-c4ccc(F)c(F)c4)coc23)cc1OC` as the molecule, how does the IC50 [6] read?
A: Its IC50 is 4.63 µM (active).

Q: For `Cc1n[nH]c2c1c(=O)n(C)c1ccccc21`, which Ki (Aurora kinase A) is on record?
A: The Ki was 1 µM (active).

Q: What about the Ki (Aurora kinase B) of the same molecule?
A: The Ki was 0.0501 µM (active).

Q: What about the Ki [7] of the same molecule?
A: Its Ki is 0.631 µM (active).

Q: Which AC50 [8] does the source give for `CC(=O)N1CCN(c2ccc(OC[C@H]3CO[C@](Cn4ccnc4)(c4ccc(Cl)cc4Cl)O3)cc2)CC1` [KETOCONAZOLE] here?
A: The AC50 was 44.7 µM (inconclusive).

Q: What about the AC50 [9] of the same molecule?
A: Its AC50 is 0.435 µM (active).

Q: And the CC50 [10]?
A: The CC50 was > 40 µM (active).

Q: With `Cc1ccc(S(=O)(=O)N2C[C@H]3n4c(=O)ccc(=O)n4C[C@H](OC(=O)Nc4cccs4)[C@@]3(O)C2)cc1` as the molecule, how does the IC50 [11] read?
A: The IC50 was 14.6 µM (inactive).

Q: For `CC(=O)Nc1cc(-c2cccc(C(=O)NCCN(C)C)c2)cn2c(-c3cccc(C(F)(F)F)c3)cnc12`, which EC50 (Melanocortin receptor 4) is on record?
A: Its EC50 is > 89.2 µM (inactive).

Q: What about the AC50 [12] of the same molecule?
A: Its AC50 is 3.93 µM (active).

Q: What about the AC50 (Paired box protein Pax-8) of the same molecule?
A: The AC50 was 11.5 µM (active).

Q: What does the source list for `O=C(c1ccoc1)N1CCN(c2cc(-c3ccccc3)nc3cc(-c4ccc(Br)cc4)nn23)CC1`?
A: EC50 [13]: 0.6 µM (active); EC50 [14]: 1.06 µM (active)

Q: Which results are given for `CN(C)C(CNC(=O)c1cc(-c2ccco2)nc2ccccc12)c1ccccc1` (stereo unspecified)?
A: IC50 [15]: 2.75 µM (active); IC50 [16]: 6.25 µM (active); IC50 [17]: 25.9 µM (active); IC50 [18]: 11.2 µM (active)

Q: For `COc1ccc(N2CCN(c3[nH]cnc4c5ccccc5nc3-4)CC2)cc1`, which IC50 [19] is on record?
A: Its IC50 is 5.54 µM (active).

Q: And the AC50 (HEK293 [20])?
A: Its AC50 is 0.865 µM (active).

Q: And the IC50 (Protein Wnt-3a)?
A: The IC50 was 1.14 µM (active).

Q: With `O=C(Nc1ccc(O)cc1C(=O)O)c1cccc(Br)c1` as the molecule, how does the IC50 [21] read?
A: Its IC50 is 19.1 µM (inactive).

Q: Which results are given for `O=C(O)c1ccccc1Nc1ccnc(N2CCCCC2)n1`?
A: Ki [22]: 3.98 µM (active); Ki [1]: > 100 µM (inactive)

Q: For `Cc1ccc(NC(=O)c2ccc(N3CCOCC3)c([N+](=O)[O-])c2)cc1S(=O)(=O)N1CCOCC1`, which EC50 [23] is on record?
A: The EC50 was 10.1 µM (inactive).

Q: For `Cc1cccc(NC(=O)Nc2ccc(-c3nn(C)c4ncnc(N)c34)cc2)c1`, which Ki (Aurora kinase A) is on record?
A: The Ki was 0.0398 µM (active).

Q: And the Ki (Aurora kinase B)?
A: The Ki was 0.00158 µM (active).

Q: And the Ki [24]?
A: The Ki was 0.501 µM (active).

Q: What does the source list for `Cc1nn(C)c(=O)c(N)c1-c1ccccc1`?
A: Ki [25]: 31.6 µM (active); Ki (Activin receptor type-1): 50.1 µM (active)
